Source: US11723894B2, “Combination product for the treatment of neurological and/or psychiatric disorders” (Consejo Superior de Investigaciones Cientificas (CSIC), priority 2017, dated 2023)

Tests used:
[1] = test system: subgranular zone of the hippocampus; assay: Long-term (21 days) in vivo neurogenesis in the subgranular zone of the hippocampus (BrdU/NeuN, BrdU/DCX); design: species or system C57BL/6 mice; details: antagonist 0.2 μg/animal with DMT 0.1 μg/animal, every other day for 3 weeks
Procedure: Adult male C57BL/6 mice (obtained from Charles River Labs, Barcelona, Spain) were injected every other day for 3 weeks with DMT (0.1 μg/animal), alone or in combination with the selective Sigma-1 BD1063 antagonist (BD, 0.2 μg/animal, Sigma, Catalog number SML0276), the mixed 5-HT2A/1A receptor antagonist methiothepin (Met, 0.2 μg/animal, Sigma, Catalog number M149), or the selective 5-HT1A receptor antagonist WAY100635 (WAY, 0.2 μg/animal, ABCAM catalog number ab120550). On day 1 of treatment, animals were intraperitoneally injected with the proliferation marker 5-bromo-2-deoxyuridine (BrdU, 50 mg/kg, Sigma, Catalog number B5002) and sacrificed on day 21. Following anesthesia, the animals were perfused transcardially with 4% paraformaldehyde, and the brains obtained and post-fixed in the same solution at 4-8° C. overnight. They were subsequently cryoprotected, frozen, and finally cut into 30 μm coronal sections in a cryostat. Free-floating sections were immunostained using immunofluorescence analysis. For BrdU detection, samples were first incubated with 2 M HCl for 30 minutes at 37° C. before blocking 1 hour in PBS containing 5% normal serum, 0.1 M lysine, and 0.1% Triton X-100. Sections were then incubated with anti-BrdU mouse monoclonal antibody (DAKO, Barcelona, Spain, Catalog number M0744) combined with a neuronal marker, anti-neuN rabbit antibody (Abcam, Cambridge, UK. Catalog number ABN78) or an anti-double courtin (DCX) goat antibody (Santa Cruz Biotech. USA) at 4° C. overnight, washed three times and incubated with Alexa Fluor-488 goat anti-mouse and Alexa 647-goat anti-rabbit or -horse anti-goat secondary antibodies (Molecular Probes, Madrid, Spain), respectively, for 1 hour at room temperature. After rinses, sections were mounted with Vectashield.

[2] = test system: hippocampal subgranular neurogenic niche; assay: Short-term (4 days) in vivo activation of the hippocampal subgranular neurogenic niche (BrdU); design: species or system C57BL/6 mice; details: antagonist 0.2 μg/animal with DMT 0.1 μg/animal
Procedure: Adult male C57BL/6 mice (obtained from Charles River Labs) were injected in the lateral ventricle (coordinates: from bregma, posterior −1 mm, lateral +1.3 mm, ventral +2 mm, according to the atlas of Paxinos and Franklin (Paxinos G, Franklin KBJ. The Mouse Brain in Stereotaxic Coordinates. 4. San Diego: Academic Press; 2012)), using a stereotaxic apparatus (Kopf Instruments, CA) with DMT (0.1 μg/animal), alone or in combination with the selective Sigma-1 BD1063 (BD, 0.2 μg/animal, Sigma, catalog number SML0276), the mixed 5-HT2A/1A receptor antagonist methiothepin (Met, 0.2 μg/animal, Sigma catalog number M149), or the selective 5-HT1A receptor antagonist WAY100635 (WAY, 0.2 μg/animal, ABCAM catalog number ab120550). Prior to the injection, mice were anesthetized by intraperitoneal injection of ketamine (60 mg/kg) and medetomidine (0.125 mg/kg). […] The boundaries of these nervous system regions were determined with reference to internal anatomic landmarks (Paxinos G, Franklin KBJ. The Mouse Brain in Stereotaxic Coordinates. 4. San Diego: Academic Press; 2012). For DG area selection, images were analyzed using computer-assisted image analysis software (Soft Imaging System Corporation, Lakewood, Colo., http://www.soft-imaging.com). Positive cells, which intersected the uppermost focal plane (exclusion plane) and the lateral exclusion boundaries of the counting frames, were not counted. […]

5HT2A = 5HT2A (Homo sapiens, UniProt P28223); details: 5HT2A Antagonist; cited from earlier work
5HT2A, sequence (P28223 whole entry): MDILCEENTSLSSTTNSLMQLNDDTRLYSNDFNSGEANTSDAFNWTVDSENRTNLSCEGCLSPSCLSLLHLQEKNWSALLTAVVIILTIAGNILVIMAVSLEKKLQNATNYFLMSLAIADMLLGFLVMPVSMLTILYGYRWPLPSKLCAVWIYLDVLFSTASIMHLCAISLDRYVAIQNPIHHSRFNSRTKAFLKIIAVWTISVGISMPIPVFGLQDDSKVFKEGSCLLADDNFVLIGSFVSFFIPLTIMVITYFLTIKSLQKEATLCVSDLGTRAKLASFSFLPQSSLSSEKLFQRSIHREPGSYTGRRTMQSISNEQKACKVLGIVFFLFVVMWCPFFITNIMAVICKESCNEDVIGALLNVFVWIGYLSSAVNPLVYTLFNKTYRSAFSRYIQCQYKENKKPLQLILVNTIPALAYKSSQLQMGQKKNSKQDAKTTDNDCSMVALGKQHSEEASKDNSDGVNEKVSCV

D2 = D2 (Homo sapiens, UniProt P14416); details: D2 Antag; cited from earlier work
D2, sequence (P14416 whole entry): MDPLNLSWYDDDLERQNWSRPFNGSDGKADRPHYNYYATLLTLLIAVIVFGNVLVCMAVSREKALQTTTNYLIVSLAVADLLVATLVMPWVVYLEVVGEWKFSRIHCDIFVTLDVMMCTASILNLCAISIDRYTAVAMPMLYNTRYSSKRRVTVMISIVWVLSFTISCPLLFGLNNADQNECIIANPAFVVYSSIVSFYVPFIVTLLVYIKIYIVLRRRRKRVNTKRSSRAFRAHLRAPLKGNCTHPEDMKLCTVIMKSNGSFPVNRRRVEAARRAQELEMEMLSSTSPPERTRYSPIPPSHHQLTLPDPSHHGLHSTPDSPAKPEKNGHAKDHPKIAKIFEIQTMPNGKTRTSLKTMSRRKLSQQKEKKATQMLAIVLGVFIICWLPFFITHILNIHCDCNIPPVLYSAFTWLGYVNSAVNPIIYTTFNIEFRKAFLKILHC

| Structure (SMILES) | blockade of the DMT neurogenic effect in vivo [1] | blockade of DMT stimulatory effects in vivo [2] | Ki (5HT2A) | Ki (D2) |
| --- | --- | --- | --- | --- |
| CN1CCN(CCc2ccc(Cl)c(Cl)c2)CC1 [BD1063] | blocked | completely blocked |  |  |
| CCNC(=O)N1CCN(CCCC(c2ccc(F)cc2)c2ccc(F)cc2)CC1 [Amperozide] |  |  | 12 nM | 140 nM |
